The source of these data is PubChem BioAssay AID256 (DTP/NCI, 2004).

The test concerns CD2F1 mice, L1210 leukemia ip, survival T/C. The test is described as follows: NCI In Vivo Anticancer Drug Screen. Data for tumor model L1210 Leukemia (intraperitoneal) in CD2F1 (CDF1) mice. Particulars: endpoint: mean survival time, higher = longer survival. In short, it runs like this:
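Each value reflects a quotient of treated over vehicle control outcomes in mice with a transplanted tumor.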

[1] abbreviates: dose: 100.0 mg/kg/injection, schedule: Q04DX003 (ip), vehicle: saline with Tween-80.
Setting [2] is: dose: 200.0 mg/kg/injection, schedule: Q04DX003 (ip), vehicle: saline with Tween-80.
The mark [3] stands for this setting: dose: 400.0 mg/kg/injection, schedule: Q04DX003 (ip), vehicle: saline with Tween-80.
[4] abbreviates: dose: 50.0 mg/kg/injection, schedule: Q01DX009 (ip), vehicle: saline with Tween-80.
[5] abbreviates: dose: 100.0 mg/kg/injection, schedule: Q01DX009 (ip), vehicle: saline with Tween-80.
[6] abbreviates: dose: 200.0 mg/kg/injection, schedule: Q01DX009 (ip), vehicle: saline with Tween-80.
Where [7] appears, read: dose: 400.0 mg/kg/injection, schedule: Q01DX009 (ip), vehicle: saline with Tween-80.

Molecules are shown by their SMILES. “And” between values parts separate entries of the source, which are not always exact repeats. Identical values can stand only once. Inconclusive results and toxic doses are left out.

As to `O=c1[nH]cc(N(CCCl)CCCl)c(=O)[nH]1`, the T/C was 101 % of control (dose: 0.05 mg/kg/injection, schedule: Q01DX009 (ip), vehicle: saline); 106 % of control (dose: 0.08 mg/kg/injection, schedule: Q01DX009 (ip), vehicle: saline); 109 % of control (dose: 0.14 mg/kg/injection, schedule: Q01DX009 (ip), vehicle: saline); 112 % of control (dose: 0.23 mg/kg/injection, schedule: Q01DX009 (ip), vehicle: saline); 107 % of control (dose: 0.23 mg/kg/injection, schedule: Q04DX003 (ip), vehicle: saline); 109 % of control (dose: 0.39 mg/kg/injection, schedule: Q04DX003 (ip), vehicle: saline). Also, the T/C reads like this: (dose: 0.65 mg/kg/injection, schedule: Q01DX001 (ip), vehicle: saline) 115 % of control; (dose: 0.65 mg/kg/injection, schedule: Q04DX003 (ip), vehicle: saline) 113 % of control; (dose: 1.1 mg/kg/injection, schedule: Q01DX009 (ip), vehicle: saline) 167 % of control; (dose: 1.1 mg/kg/injection, schedule: Q04DX003 (ip), vehicle: saline) 151 % of control; (dose: 1.8 mg/kg/injection, schedule: Q01DX009 (ip), vehicle: saline) 115 % of control; (dose: 1.8 mg/kg/injection, schedule: Q04DX003 (ip), vehicle: saline) 182 % of control. Moreover, the T/C is, setting by setting: (dose: 3.0 mg/kg/injection, schedule: Q01DX001 (ip), vehicle: saline) 163 % of control; (dose: 5.0 mg/kg/injection, schedule: Q01DX001 (ip), vehicle: saline) 221 % of control; (dose: 5.0 mg/kg/injection, schedule: Q04DX003 (ip), vehicle: saline) 91 % of control; (dose: 8.4 mg/kg/injection, schedule: Q01DX001 (ip), vehicle: saline) 110 % of control.
Turning to `O=C(NO)c1ccc(O)cc1`, the T/C (dose: 267.0 mg/kg/injection, schedule: Q01DX009 (ip), vehicle: saline) is 120 % of control.
For `Cc1cc(NC(=O)SCCOC(=O)COc2ccc(Cl)cc2)ccc1Cl`, the T/C reads like this: under setting [1], 91 % of control; under setting [2], 91 % of control; under setting [3], 89 % of control.
As for `CC1CCOC(c2ccccc2)O1` (configuration not stated), the T/C is, setting by setting: (dose: 50.0 mg/kg/injection, schedule: Q04DX002 (ip), vehicle: saline with Tween-80) 102 % of control; (dose: 100.0 mg/kg/injection, schedule: Q04DX002 (ip), vehicle: saline with Tween-80) 94 % of control; (dose: 200.0 mg/kg/injection, schedule: Q04DX002 (ip), vehicle: saline with Tween-80) 97 % of control.
`CC1CCC2N(C1)CC1C(C(O)C(O)C3(O)C1CC14OC5(O)C(O)CCC1(C)C5CC(O)C34)C2(C)O` (configuration not stated): the T/C reads like this: under setting [4], 105 % of control; under setting [5], 116 % of control; under setting [6], 105 % of control.
For `O=C(Nc1cccc(O)c1)c1ccc([N+](=O)[O-])cc1`, the T/C is, setting by setting: (dose: 100.0 mg/kg/injection, schedule: Q04DX003 (ip), vehicle: Klucel (hydroxypropylcellulose) (HPC)) 97 % of control; (dose: 200.0 mg/kg/injection, schedule: Q04DX003 (ip), vehicle: Klucel (hydroxypropylcellulose) (HPC)) 107 % of control; (dose: 400.0 mg/kg/injection, schedule: Q04DX003 (ip), vehicle: Klucel (hydroxypropylcellulose) (HPC)) 108 % of control.
Consider `CC(C)(C)C(=O)CC(O)(C(F)(F)Cl)C(F)(F)Cl`, for which the T/C was 111 % of control under setting [4]; 116 % of control and 108 % of control under setting [5]; 92 % of control and 95 % of control under setting [6]; 113 % of control under setting [7].
With `O=C(O)c1cc(C(=O)O)c(C(=O)O)cc1C(=O)O.[NH-]C1CCCC1.[NH-]C1CCCC1.[NH-]C1CCCC1.[NH-]C1CCCC1.[Pt+2].[Pt+2]`, the T/C (dose: 3.12 mg/kg/injection, schedule: Q04DX003 (ip), vehicle: distilled water + Tween-80) is 103 % of control; the T/C (dose: 6.25 mg/kg/injection, schedule: Q04DX003 (ip), vehicle: distilled water + Tween-80) was 107 % of control; the T/C (dose: 12.5 mg/kg/injection, schedule: Q04DX003 (ip), vehicle: distilled water + Tween-80) is 108 % of control; the T/C (dose: 25.0 mg/kg/injection, schedule: Q04DX003 (ip), vehicle: distilled water + Tween-80) was 111 % of control; the T/C (dose: 50.0 mg/kg/injection, schedule: Q04DX003 (ip), vehicle: distilled water + Tween-80) is 108 % of control; the T/C (dose: 100.0 mg/kg/injection, schedule: Q04DX003 (ip), vehicle: distilled water + Tween-80) was 113 % of control. Besides, the T/C (dose: 200.0 mg/kg/injection, schedule: Q04DX003 (ip), vehicle: distilled water + Tween-80) was 124 % of control.
For the compound `CC1OC(n2ncc(=O)[nH]c2=O)C(O)C(O)C1O` (configuration not stated), the T/C is, setting by setting: (dose: 12.5 mg/kg/injection, schedule: Q01DX005 (ip), vehicle: distilled water + Tween-80) 105 % of control; (dose: 25.0 mg/kg/injection, schedule: Q01DX005 (ip), vehicle: distilled water + Tween-80) 100 % of control; (dose: 50.0 mg/kg/injection, schedule: Q01DX005 (ip), vehicle: distilled water + Tween-80) 103 % of control; (dose: 100.0 mg/kg/injection, schedule: Q01DX005 (ip), vehicle: distilled water + Tween-80) 103 % of control; (dose: 200.0 mg/kg/injection, schedule: Q01DX005 (ip), vehicle: distilled water + Tween-80) 107 % of control.
On to `CCCCOP(=O)(OCCCC)OC(=C(Cl)Cl)P(=O)(OCCCC)OCCCC`, for which the T/C is 89 % of control (dose: 100.0 mg/kg/injection, schedule: Q04DX002 (ip), vehicle: saline) and 92 % of control (dose: 200.0 mg/kg/injection, schedule: Q04DX002 (ip), vehicle: saline).
With `Cc1cccc(OP(=O)(c2ccccc2)c2ccccc2)c1`, the T/C is 98 % of control under setting [1], 98 % of control under setting [2] and 103 % of control under setting [3].
Consider `O=C1c2ccccc2S(=O)(=O)N1CCBr`, for which the T/C is 97 % of control under setting [5]; 106 % of control under setting [1]; 100 % of control under setting [6]; 106 % of control under setting [2]; 102 % of control under setting [7]; 110 % of control under setting [3].
Regarding `NC1=NC(c2ccccc2)N(c2cccc(Cl)c2)C(N)=N1` (configuration not stated), the T/C (dose: 25.0 mg/kg/injection, schedule: Q01DX001 (ip), vehicle: saline) is 107 % of control; the T/C (dose: 50.0 mg/kg/injection, schedule: Q01DX001 (ip), vehicle: saline) was 104 % of control; the T/C (dose: 100.0 mg/kg/injection, schedule: Q01DX001 (ip), vehicle: saline) is 101 % of control.
Turning to `c1ccc(C(Nc2ncnc3nncnc23)c2ccccc2)cc1`, where the note is “dose: 75.0 mg/kg/injection, schedule: Q01DX001 (ip), vehicle: other”, the T/C was 94 % of control.
Turning to `F/C(=C\c1ccccc1)c1ccccc1`, the T/C runs as follows: (dose: 50.0 mg/kg/injection, schedule: Q01DX001 (ip), vehicle: saline with Tween-80) 110 % of control; (dose: 100.0 mg/kg/injection, schedule: Q01DX001 (ip), vehicle: saline with Tween-80) 108 % of control; (dose: 200.0 mg/kg/injection, schedule: Q01DX001 (ip), vehicle: saline with Tween-80) 101 % of control.
Take `O=C1NC(=O)c2ccc3c4c(ccc1c24)C(=O)NC3=O`: the T/C reads like this: (dose: 15.5 mg/kg/injection, schedule: Q01DX009 (ip), vehicle: saline with Tween-80) 100 % of control; (dose: 31.0 mg/kg/injection, schedule: Q01DX009 (ip), vehicle: saline with Tween-80) 94 % of control; (dose: 62.0 mg/kg/injection, schedule: Q01DX009 (ip), vehicle: saline with Tween-80) 100 % of control; (dose: 62.5 mg/kg/injection, schedule: Q01DX009 (ip), vehicle: saline with Tween-80) 98 % of control.
